Data on 24 compounds can be found in patent US20250195530A1, “POLQ INHIBITORS” (ASTRAZENECA AB, priority 2022, published 2025).

Read-outs that look alike come from different tables or passages of the source.

One assay concerns DLD-1 BRCA2−/− cells. The experiment in a line: Homologous recombination synthetic lethal inhibition of proliferation, DLD-1 BRCA2-/- (Cell Titre Glo 3D). It is filed as cell-based. The note with it: Homo sapiens. A digest of the protocol: (§1)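 DLD-1 BRCA2−/− and parental DLD-1 cells exposed to 10-point dose range (10 μM to 0.51 nM, 3-fold) in RPMI/10% FBS at 37 °C, with medium and compound replenished on day 6. Viability by Cell Titre Glo 3D luminescence at day 7 (DLD-1) or day 12 (BRCA2−/−); IC50 as concentration halving maximum signal.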

Another assay has as its system DLD-1 cells. The experiment in a line: Inhibition of proliferation, DLD-1 BRCA2 wt control (Cell Titre Glo 3D). The note with it: Homo sapiens. It is filed as cell-based. The method in brief: as §1
Setting [1] is: DLD-1, 288 h, DLD-1 BRCA2−/− cells, 12 days, read-out: POLQ PD Prolif Lumin BRCA2 −/− mean pIC50 (converted).
The mark [2] stands for this setting: DLD-1, 168 h, DLD-1 BRCA2 wt cells, 7 days, read-out: POLQ PD Prolif Lumin DLD1 mean pIC50 (converted).
Setting [3] is: DLD-1, proliferation, luminescence, taken as DLD-1 BRCA2-/-, read-out: POLQ PD Prolif Lumin (converted).
Where [4] appears, read: DLD-1, proliferation, luminescence, second Prolif column (c6), taken as DLD-1 BRCA2 wt control, read-out: POLQ PD Prolif Lumin (converted).
Setting [5] is: DLD-1, 288 h, DLD-1 BRCA2−/−, 12 days, Cell Titre Glo 3D, read-out: POLQ PD Prolif Lumin BRCA2 −/− Mean pIC50 (converted).
[6] abbreviates: DLD-1, 168 h, DLD-1 (BRCA2 wt control), 7 days, Cell Titre Glo 3D, read-out: POLQ PD Prolif Lumin DLD1 Mean pIC50 (converted).
Where [7] appears, read: DLD-1, first proliferation column (c5), taken as DLD-1 BRCA2-/-, read-out: POLQ PD Prolif Lumin (converted).
[8] abbreviates: DLD-1, second proliferation column (c6), taken as DLD-1 BRCA2 wt, read-out: POLQ PD Prolif Lumin (converted).

For the compound `C[C@@H](CCOc1ccc(-c2nc3c(OC4(C)CC4)ncnc3n2Cc2cc(Cl)ccc2C#N)c(Cl)c1)C(=O)O` [Example U82, (S)-4-(3-chloro-4-(9-(5-chloro-2-cyanobenzyl)-6-(1-methylcyclopropoxy)-9H-purin-8-yl)phenoxy)-2-methylbutanoic acid], the IC50 in the assay on DLD-1 BRCA2−/− cells (DLD-1, DLD-1 BRCA2 −/−, mean, read-out: POLQ PD Prolif Lumin BRCA2 −/− mean pIC50 (converted)) is 50.1 nM; in the assay on DLD-1 cells (DLD-1, DLD1 BRCA2 wt, mean, read-out: POLQ PD Prolif Lumin DLD1 mean pIC50 (converted)), greater than 10000 nM.

`CC1(Oc2ncnc3c2nc(-c2ccc(OCCN4CCNCC4)c(Cl)c2Cl)n3Cc2ccccc2)CC1` [Example J1, 9-benzyl-8-(2,3-dichloro-4-(2-(piperazin-1-yl)ethoxy)phenyl)-6-(1-methylcyclopropoxy)-9H-purine]: the IC50 in the assay on DLD-1 BRCA2−/− cells (setting [1]) is 251 nM; with DLD-1 cells (setting [2]), 501 nM.

Consider `CN1CCN(CCOc2cc(Cl)c(-c3nc4c(OC5(C)CC5)ncnc4n3Cc3ccccc3)cn2)CC1` [Example 20, 9-Benzyl-8-(4-chloro-6-(2-(4-methylpiperazin-1-yl)ethoxy)pyridin-3-yl)-6-(1-methylcyclopropoxy)-9H-purine], for which the IC50 was 398 nM with DLD-1 BRCA2−/− cells (setting [1]) and 7940 nM in the assay with DLD-1 cells (setting [2]).

As to `Cc1cc(N2CCC(N(C)C)CC2)ncc1-c1nc2c(OC3(C)CC3)ncnc2n1Cc1ccccc1` [Example F3, 1-(5-(9-benzyl-6-(1-methylcyclopropoxy)-9H-purin-8-yl)-4-methylpyridin-2-yl)-N,N-dimethylpiperidin-4-amine], the results for the IC50 in the assay with DLD-1 BRCA2−/− cells (setting [1]) and in the assay with DLD-1 cells (setting [2]) were 251 nM and greater than 10000 nM, respectively.

For `CC1(Oc2cccc3c2nc(-c2ccc(OCCC(=O)O)cc2Cl)n3Cc2cccc(Cl)c2)CCC1` [Example T406, 3-(3-chloro-4-(1-(3-chlorobenzyl)-4-(1-methylcyclobutoxy)-1H-benzo[d]imidazol-2-yl)phenoxy)propanoic acid], the IC50 with DLD-1 BRCA2−/− cells (setting [3]) was 2000 nM; with DLD-1 cells (setting [4]), greater than 10000 nM.

For the compound `Cc1ccnc(Cn2c(-c3ccc(OCC(C)(C)O)cc3Cl)nc3c(OC4(C)CC4)ncnc32)c1` [Example 45, 1-(3-Chloro-4-(6-(1-methylcyclopropoxy)-9-((4-methylpyridin-2-yl)methyl)-9H-purin-8-yl)phenoxy)-2-methylpropan-2-ol], the figures for the IC50 with DLD-1 BRCA2−/− cells (setting [5]) and in the assay on DLD-1 cells (setting [6]) were 200 nM and greater than 10000 nM, respectively.

For the compound `Cc1ccnc(Cn2c(-c3ccc(N4C[C@H]5C[C@@H]4CN5)cc3Cl)nc3c(OC4(C)CC4)ncnc32)c1` [Example T336, 8-(4-((1R,4R)-2,5-diazabicyclo[2.2.1]heptan-2-yl)-2-chlorophenyl)-6-(1-methylcyclopropoxy)-9-((4-methylpyridin-2-yl)methyl)-9H-purine], the IC50 in the assay with DLD-1 BRCA2−/− cells (setting [7]) was 1580 nM; in the assay on DLD-1 cells (setting [8]) it was greater than 10000 nM.

Take `CN1CCN(CCOc2ccc(-c3nc4c(OC5(C)CC5)ncnc4n3Cc3ccccc3)c(F)c2F)CC1` [Example H5, 9-benzyl-8-(2,3-difluoro-4-(2-(4-methylpiperazin-1-yl)ethoxy)phenyl)-6-(1-methylcyclopropoxy)-9H-purine]: the IC50 in the assay on DLD-1 BRCA2−/− cells (setting [1]) is 398 nM; in the assay on DLD-1 cells (setting [2]), 7940 nM.

For `CC1(Oc2ncnc3c2nc(-c2ccc(OCC4(F)CNC4)cc2Cl)n3Cc2ccccc2)CC1` [Example D19, 9-benzyl-8-(2-chloro-4-((3-fluoroazetidin-3-yl)methoxy)phenyl)-6-(1-methylcyclopropoxy)-9H-purine], the values for the IC50 in the assay on DLD-1 BRCA2−/− cells (setting [1]) and in the assay on DLD-1 cells (setting [2]) were 501 nM and 5010 nM, respectively.

As to `Clc1cccc(Cn2c(-c3ccc(OCCN4CCNCC4)cc3Cl)nc3c(OC4CC4)ncnc32)c1` [Example Q4, 8-(2-chloro-4-(2-(piperazin-1-yl)ethoxy)phenyl)-9-(3-chlorobenzyl)-6-cyclopropoxy-9H-purine], the results for the IC50 in the assay with DLD-1 BRCA2−/− cells (setting [1]) and with DLD-1 cells (setting [2]) were 200 nM and 2000 nM, respectively.

Consider `CC(OCCOc1ccc(-c2nc3c(OC4(C)CC4)ncnc3n2Cc2cccc(Cl)c2)c(Cl)c1)C(=O)O` (racemic) [Example T305, rac-(R)-2-(2-(3-chloro-4-(9-(3-chlorobenzyl)-6-(1-methylcyclopropoxy)-9H-purin-8-yl)phenoxy)ethoxy)propanoic acid], for which the IC50 in the assay on DLD-1 BRCA2−/− cells (setting [7]) was 794 nM; in the assay on DLD-1 cells (setting [8]), greater than 10000 nM.

In the case of `CC1(Oc2ncnc3c2nc(-c2ccc(OCCN4CCNCC4)cc2Cl)n3CCc2ccccc2)CC1` [Example J12, 8-(2-chloro-4-(2-(piperazin-1-yl)ethoxy)phenyl)-6-(1-methylcyclopropoxy)-9-phenethyl-9H-purine], the values for the IC50 in the assay on DLD-1 BRCA2−/− cells (setting [1]) and with DLD-1 cells (setting [2]) were 501 nM and greater than 10000 nM, respectively.

Regarding `CC1(Oc2ncnc3c2nc(-c2ccc(OC[C@H]4CCN4)cc2Cl)n3Cc2ccccc2)CC1` [Example D16, (R)-8-(4-(azetidin-2-ylmethoxy)-2-chlorophenyl)-9-benzyl-6-(1-methylcyclopropoxy)-9H-purine], the IC50 in the assay with DLD-1 BRCA2−/− cells (setting [1]) is 158 nM; in the assay with DLD-1 cells (setting [2]), 3980 nM.

`CC(=O)NCCCOc1ccc(-c2nc3c(OC4(C)CC4)ncnc3n2Cc2ccccc2)c(Cl)c1` [Example D7, N-(3-(4-(9-benzyl-6-(1-methylcyclopropoxy)-9H-purin-8-yl)-3-chlorophenoxy)propyl)acetamide]: the values for the IC50 in the assay on DLD-1 BRCA2−/− cells (setting [1]) and with DLD-1 cells (setting [2]) were 126 nM and 6310 nM, respectively.

As to `Cc1cnc(Cn2c(-c3ccc(OC4CC5(C4)CN(C)C5)cc3Cl)nc3c(OC4(C)CC4)ncnc32)s1` [Example T359, 2-((8-(2-chloro-4-((2-methyl-2-azaspiro[3.3]heptan-6-yl)oxy)phenyl)-6-(1-methylcyclopropoxy)-9H-purin-9-yl)methyl)-5-methylthiazole], the IC50 is 501 nM in the assay with DLD-1 BRCA2−/− cells (setting [7]) and greater than 10000 nM with DLD-1 cells (setting [8]).

As for `CC1(Oc2ncnc3c2nc(-c2ccc(OCCN4C[C@H]5C[C@@H]4CN5)cc2Cl)n3Cc2ccccc2)CC1` [Example R20, 8-(4-(2-((1R,4R)-2,5-diazabicyclo[2.2.1]heptan-2-yl)ethoxy)-2-chlorophenyl)-9-benzyl-6-(1-methylcyclopropoxy)-9H-purine], the IC50 in the assay with DLD-1 BRCA2−/− cells (setting [1]) was 200 nM; with DLD-1 cells (setting [2]) it was 2510 nM.

For `FC(F)(F)C1(Oc2ncnc3c2nc(-c2ccc(OCCN4CCNCC4)cc2Cl)n3Cc2ccccc2)COC1` [Example T424, 9-benzyl-8-(2-chloro-4-(2-(piperazin-1-yl)ethoxy)phenyl)-6-((3-(trifluoromethyl)oxetan-3-yl)oxy)-9H-purine], the values for the IC50 with DLD-1 BRCA2−/− cells (setting [3]) and in the assay with DLD-1 cells (setting [4]) were 2000 nM and 10000 nM, respectively.

Take `CC1(Oc2ncnc3c2nc(-c2ccc(OCCN4C[C@@H]5C[C@H]4CN5)cc2Cl)n3Cc2ccccc2)CC1` [Example R19, 8-(4-(2-((1S,4S)-2,5-diazabicyclo[2.2.1]heptan-2-yl)ethoxy)-2-chlorophenyl)-9-benzyl-6-(1-methylcyclopropoxy)-9H-purine]: the IC50 is 200 nM in the assay with DLD-1 BRCA2−/− cells (setting [1]) and 3980 nM in the assay on DLD-1 cells (setting [2]).

`CC(CCOc1ccc(-c2nc3c(OC4(C)CC4)ncnc3n2Cc2ccccc2C2CC2)c(Cl)c1)C(=O)O` (racemic) [Example T598, 4-(3-chloro-4-(9-(2-cyclopropylbenzyl)-6-(1-methylcyclopropoxy)-9H-purin-8-yl)phenoxy)-2-methylbutanoic acid]: the IC50 with DLD-1 BRCA2−/− cells (DLD-1, first proliferation column, DLD-1 BRCA2-/-, read-out: POLQ PD Prolif Lumin (converted)) was 631 nM; in the assay with DLD-1 cells (DLD-1, second proliferation column, DLD-1 BRCA2 wt control, read-out: POLQ PD Prolif Lumin (converted)) it was greater than 10000 nM.

As to `C[C@@H]1CN(CCOc2ccc(-c3nc4c(OC5(C)CC5)ncnc4n3Cc3ccccc3)c(Cl)c2)CCN1` [Example R6, (R)-9-benzyl-8-(2-chloro-4-(2-(3-methylpiperazin-1-yl)ethoxy)phenyl)-6-(1-methylcyclopropoxy)-9H-purine], the IC50 in the assay on DLD-1 BRCA2−/− cells (setting [1]) was 63.1 nM; in the assay on DLD-1 cells (setting [2]), 3160 nM.

For `CC1(Oc2ncnc3c2nc(-c2ccc(CC(N)=O)cc2Cl)n3Cc2cc(Cl)ccn2)CC1` [Example 38, 2-(3-Chloro-4-(9-((4-chloropyridin-2-yl)methyl)-6-(1-methylcyclopropoxy)-9H-purin-8-yl)phenyl)acetamide], the IC50 with DLD-1 BRCA2−/− cells (setting [5]) was 398 nM; in the assay with DLD-1 cells (setting [6]), greater than 10000 nM.

Regarding `CC1(Oc2ncnc3c2nc(-c2ccc(OCCN4CCNCC4)cc2Cl)n3Cc2ccccc2)CC1` [Example 6, 9-Benzyl-8-(2-chloro-4-(2-(piperazin-1-yl)ethoxy)phenyl)-6-(1-methylcyclopropoxy)-9H-purine], the IC50 was 158 nM in the assay with DLD-1 BRCA2−/− cells (setting [1]) and 3980 nM in the assay on DLD-1 cells (setting [2]).

Regarding `CC1(Oc2ncnc3c2nc(-c2ccc(OCCN4CCC[C@@H](O)C4)cc2Cl)n3Cc2ccccc2)CC1` [Example R7, (R)-1-(2-(4-(9-benzyl-6-(1-methylcyclopropoxy)-9H-purin-8-yl)-3-chlorophenoxy)ethyl)piperidin-3-ol], the figures for the IC50 with DLD-1 BRCA2−/− cells (setting [1]) and in the assay with DLD-1 cells (setting [2]) were 63.1 nM and 3160 nM, respectively.

Take `Cc1ccnc(Cn2c(-c3ccc(C(=O)N4CC5(CCN5)C4)cc3Cl)nc3c(OC4(C)CC4)ncnc32)c1` [Example T429, (3-chloro-4-(6-(1-methylcyclopropoxy)-9-((4-methylpyridin-2-yl)methyl)-9H-purin-8-yl)phenyl)(1,6-diazaspiro[3.3]heptan-6-yl)methanone]: the values for the IC50 in the assay with DLD-1 BRCA2−/− cells (setting [3]) and with DLD-1 cells (setting [4]) were 1260 nM and greater than 10000 nM, respectively.
